# Test results: US10202361B2, “Pyridazinones as herbicides” (E I DU PONT DE NEMOURS AND COMPANY, priority 2014, dated 2019)
# Columns and labels:
# Format in all cases: in vivo
# [1] = tested on: velvetleaf (Abutilon theophrasti); experiment: Test A pre-/postemergence greenhouse herbicide test; conditions: 0 to 100 scale (0 no effect, 100 complete control), approx. 10 d
# From the text: (§1) Seeds of plant species selected from barnyardgrass (Echinochloa crus-galli), crabgrass, Large (large crabgrass, Digitaria sanguinalis), foxtail, giant (giant foxtail, Setaria faberii), morningglory (Ipomoea spp.), pigweed (Amaranthus retroflexus), velvetleaf (Abutilon theophrasti), wheat (Triticum aestivum), and corn (Zea mays) were planted into a blend of loam soil and sand and treated preemergence with a directed soil spray using test chemicals formulated in a non-phytotoxic solvent mixture which included a surfactant. At the same time these species were also treated with postemergence applications of test chemicals formulated in the same manner.
# (§2) Plants ranged in height from 2 to 10 cm and were in the one- to two-leaf stage for the postemergence treatment. Treated plants and untreated controls were maintained in a greenhouse for approximately 10 d, after which time all treated plants were compared to untreated controls and visually evaluated for injury. Plant response ratings, summarized in Table A, are based on a 0 to 100 scale where 0 is no effect and 100 is complete control. A dash (-) response means no test result.
# [2] = tested on: barnyardgrass (Echinochloa crus-galli); experiment: as above; conditions: 0 to 100 scale (0 no effect, 100 complete control), approx. 10 d
# From the text: as §1, §2
# corn (Zea mays) = experiment: as above; conditions: 0 to 100 scale (0 no effect, 100 complete control), approx. 10 d
# From the text: as §1, §2
# [3] = tested on: foxtail, giant (giant foxtail, Setaria faberii); experiment: as above; conditions: 0 to 100 scale (0 no effect, 100 complete control), approx. 10 d
# From the text: as §1, §2
# [4] = tested on: crabgrass, Large (large crabgrass, Digitaria sanguinalis); experiment: as above; conditions: 0 to 100 scale (0 no effect, 100 complete control), approx. 10 d
# From the text: as §1, §2
# [5] = tested on: morningglory (Ipomoea spp.); experiment: as above; conditions: 0 to 100 scale (0 no effect, 100 complete control), approx. 10 d
# From the text: as §1, §2
# [6] = tested on: wheat (Triticum aestivum); experiment: as above; conditions: 0 to 100 scale (0 no effect, 100 complete control), approx. 10 d
# From the text: as §1, §2
# [7] = tested on: pigweed (Amaranthus retroflexus); experiment: as above; conditions: 0 to 100 scale (0 no effect, 100 complete control), approx. 10 d
# From the text: as §1, §2
# [8] = tested on: ducksalad (Heteranthera limosa); experiment: Test B flooded paddy test; conditions: Flood, scale of 0 to 100, 0 is no effect, 100 is complete control, 13 to 15 d
# Procedure: (§3) Plant species in the flooded paddy test selected from rice (Oryza sativa), small-flower sedge, umbrella (small-flower umbrella sedge, Cyperus difformis), ducksalad (Heteranthera limosa), and barnyardgrass (Echinochloa crus-galli) were grown to the 2-leaf stage for testing. At time of treatment, test pots were flooded to 3 cm above the soil surface, treated by application of test compounds directly to the paddy water, and then maintained at that water depth for the duration of the test. Treated plants and controls were maintained in a greenhouse for 13 to 15 d, after which time all species were compared to controls and visually evaluated. Plant response ratings, summarized in Table B, are based on a scale of 0 to 100 where 0 is no effect and 100 is complete control. A dash (-) response means no test result.
# [9] = tested on: sedge, umbrella (small-flower umbrella sedge, Cyperus difformis); experiment: Test B flooded paddy test; conditions: Flood, scale of 0 to 100, 0 is no effect, 100 is complete control, 13 to 15 d
# Procedure: as §3
# [10] = tested on: barnyardgrass (Echinochloa crus-galli); experiment: Test B flooded paddy test; conditions: Flood, scale of 0 to 100, 0 is no effect, 100 is complete control, 13 to 15 d
# Procedure: as §3
# rice (Oryza sativa) = experiment: Test B flooded paddy test; conditions: Flood, scale of 0 to 100, 0 is no effect, 100 is complete control, 13 to 15 d
# Procedure: as §3
Compound,"Plant response rating, Velvetleaf ([1]; Postemergence, 125 g ai/ha)","Plant response rating, Velvetleaf ([1]; Postemergence, 500 g ai/ha)","Plant response rating, Velvetleaf ([1]; Preemergence, 125 g ai/ha)","Plant response rating, Velvetleaf ([1]; Preemergence, 500 g ai/ha)","Plant response rating, Barnyardgrass ([2]; Postemergence, 125 g ai/ha)","Plant response rating, Barnyardgrass ([2]; Postemergence, 500 g ai/ha)","Plant response rating, Corn (corn (Zea mays); Postemergence, 125 g ai/ha)","Plant response rating, Corn (corn (Zea mays); Postemergence, 500 g ai/ha)","Plant response rating, Corn (corn (Zea mays); Preemergence, 125 g ai/ha)","Plant response rating, Corn (corn (Zea mays); Preemergence, 500 g ai/ha)","Plant response rating, Foxtail, Giant ([3]; Postemergence, 125 g ai/ha)","Plant response rating, Foxtail, Giant ([3]; Postemergence, 500 g ai/ha)","Plant response rating, Foxtail, Giant ([3]; Preemergence, 125 g ai/ha)","Plant response rating, Foxtail, Giant ([3]; Preemergence, 500 g ai/ha)","Plant response rating, Crabgrass, Large ([4]; Postemergence, 125 g ai/ha)","Plant response rating, Crabgrass, Large ([4]; Postemergence, 500 g ai/ha)","Plant response rating, Crabgrass, Large ([4]; Preemergence, 125 g ai/ha)","Plant response rating, Crabgrass, Large ([4]; Preemergence, 500 g ai/ha)","Plant response rating, Morningglory ([5]; Postemergence, 125 g ai/ha)","Plant response rating, Morningglory ([5]; Postemergence, 500 g ai/ha)",also measured
Cc1cc(Oc2cccc(C(F)(F)F)n2)nn(-c2ccc(F)cc2)c1=O [Compound 11],0,0,0,0,0,0,0,0,0,0,10,20,0,0,10,20,0,10,20,30,"Plant response rating, Morningglory ([5]; Preemergence, 125 g ai/ha): 0; Plant response rating, Morningglory ([5]; Preemergence, 500 g ai/ha): 0; Plant response rating, Wheat ([6]; Postemergence, 125 g ai/ha): 0; Plant response rating, Wheat ([6]; Postemergence, 500 g ai/ha): 0; Plant response rating, Wheat ([6]; Preemergence, 125 g ai/ha): 0; Plant response rating, Wheat ([6]; Preemergence, 500 g ai/ha): 0; Plant response rating, Pigweed ([7]; Postemergence, 125 g ai/ha): 60; Plant response rating, Pigweed ([7]; Postemergence, 500 g ai/ha): 70; Plant response rating, Pigweed ([7]; Preemergence, 125 g ai/ha): 0; Plant response rating, Pigweed ([7]; Preemergence, 500 g ai/ha): 0; Plant response rating, Ducksalad ([8]; 250 g ai/ha): 0; Plant response rating, Sedge, Umbrella ([9]; 250 g ai/ha): 0; Plant response rating, Barnyardgrass ([10]; 250 g ai/ha): 0; Plant response rating, Rice (rice (Oryza sativa); 250 g ai/ha): 0"
Cc1cc(=O)n(-c2ccc(F)cc2)nc1Oc1cccc(C(F)(F)F)n1 [Compound 12],40,60,30,70,40,70,10,50,0,30,20,80,80,100,20,70,100,100,50,90,"Plant response rating, Morningglory ([5]; Preemergence, 125 g ai/ha): 0; Plant response rating, Morningglory ([5]; Preemergence, 500 g ai/ha): 50; Plant response rating, Wheat ([6]; Postemergence, 125 g ai/ha): 0; Plant response rating, Wheat ([6]; Postemergence, 500 g ai/ha): 20; Plant response rating, Wheat ([6]; Preemergence, 125 g ai/ha): 0; Plant response rating, Wheat ([6]; Preemergence, 500 g ai/ha): 0; Plant response rating, Pigweed ([7]; Postemergence, 125 g ai/ha): 60; Plant response rating, Pigweed ([7]; Postemergence, 500 g ai/ha): 90; Plant response rating, Pigweed ([7]; Preemergence, 125 g ai/ha): 90; Plant response rating, Pigweed ([7]; Preemergence, 500 g ai/ha): 100; Plant response rating, Ducksalad ([8]; 250 g ai/ha): 0; Plant response rating, Sedge, Umbrella ([9]; 250 g ai/ha): 0; Plant response rating, Barnyardgrass ([10]; 250 g ai/ha): 20; Plant response rating, Rice (rice (Oryza sativa); 250 g ai/ha): 20"
Cc1cc(Oc2ccnc(C(F)(F)F)c2)nn(-c2ccc(F)cc2)c1=O [Compound 13],60,70,10,50,10,60,20,50,0,10,50,90,80,100,50,90,100,100,50,60,"Plant response rating, Barnyardgrass ([2]; Preemergence, 125 g ai/ha): 0; Plant response rating, Barnyardgrass ([2]; Preemergence, 500 g ai/ha): 60; Plant response rating, Morningglory ([5]; Preemergence, 125 g ai/ha): 20; Plant response rating, Morningglory ([5]; Preemergence, 500 g ai/ha): 80; Plant response rating, Wheat ([6]; Postemergence, 125 g ai/ha): 0; Plant response rating, Wheat ([6]; Postemergence, 500 g ai/ha): 20; Plant response rating, Wheat ([6]; Preemergence, 125 g ai/ha): 0; Plant response rating, Wheat ([6]; Preemergence, 500 g ai/ha): 10; Plant response rating, Pigweed ([7]; Postemergence, 125 g ai/ha): 90; Plant response rating, Pigweed ([7]; Postemergence, 500 g ai/ha): 100; Plant response rating, Pigweed ([7]; Preemergence, 125 g ai/ha): 80; Plant response rating, Pigweed ([7]; Preemergence, 500 g ai/ha): 90; Plant response rating, Ducksalad ([8]; 250 g ai/ha): 30; Plant response rating, Sedge, Umbrella ([9]; 250 g ai/ha): 65; Plant response rating, Barnyardgrass ([10]; 250 g ai/ha): 0; Plant response rating, Rice (rice (Oryza sativa); 250 g ai/ha): 0"
Cc1cc(=O)n(-c2ccccc2)nc1Oc1ccnc(C(F)(F)F)c1 [Compound 15],70,90,30,70,70,90,40,80,10,20,70,90,100,100,80,90,100,100,100,100,"Plant response rating, Barnyardgrass ([2]; Preemergence, 125 g ai/ha): 50; Plant response rating, Barnyardgrass ([2]; Preemergence, 500 g ai/ha): 100; Plant response rating, Morningglory ([5]; Preemergence, 125 g ai/ha): 90; Plant response rating, Morningglory ([5]; Preemergence, 500 g ai/ha): 100; Plant response rating, Wheat ([6]; Postemergence, 125 g ai/ha): 20; Plant response rating, Wheat ([6]; Postemergence, 500 g ai/ha): 60; Plant response rating, Wheat ([6]; Preemergence, 125 g ai/ha): 0; Plant response rating, Wheat ([6]; Preemergence, 500 g ai/ha): 20; Plant response rating, Pigweed ([7]; Postemergence, 125 g ai/ha): 100; Plant response rating, Pigweed ([7]; Postemergence, 500 g ai/ha): 100; Plant response rating, Pigweed ([7]; Preemergence, 125 g ai/ha): 100; Plant response rating, Pigweed ([7]; Preemergence, 500 g ai/ha): 100; Plant response rating, Ducksalad ([8]; 250 g ai/ha): 70; Plant response rating, Sedge, Umbrella ([9]; 250 g ai/ha): 70; Plant response rating, Barnyardgrass ([10]; 250 g ai/ha): 0; Plant response rating, Rice (rice (Oryza sativa); 250 g ai/ha): 0"
CCOc1cc(=O)n(-c2ccc(C(F)(F)F)cc2)nc1Cc1ccnc(C(F)(F)F)c1 [Compound 18],30,80,40,40,30,40,20,40,10,10,20,50,100,100,60,80,100,100,30,70,"Plant response rating, Barnyardgrass ([2]; Preemergence, 125 g ai/ha): 60; Plant response rating, Barnyardgrass ([2]; Preemergence, 500 g ai/ha): 90; Plant response rating, Morningglory ([5]; Preemergence, 125 g ai/ha): 30; Plant response rating, Morningglory ([5]; Preemergence, 500 g ai/ha): 30; Plant response rating, Wheat ([6]; Postemergence, 125 g ai/ha): 10; Plant response rating, Wheat ([6]; Postemergence, 500 g ai/ha): 20; Plant response rating, Wheat ([6]; Preemergence, 125 g ai/ha): 0; Plant response rating, Wheat ([6]; Preemergence, 500 g ai/ha): 20; Plant response rating, Pigweed ([7]; Postemergence, 125 g ai/ha): 90; Plant response rating, Pigweed ([7]; Postemergence, 500 g ai/ha): 100; Plant response rating, Pigweed ([7]; Preemergence, 125 g ai/ha): 100; Plant response rating, Pigweed ([7]; Preemergence, 500 g ai/ha): 100; Plant response rating, Ducksalad ([8]; 125 g ai/ha): 0; Plant response rating, Sedge, Umbrella ([9]; 125 g ai/ha): 75; Plant response rating, Barnyardgrass ([10]; 125 g ai/ha): 0; Plant response rating, Rice (rice (Oryza sativa); 125 g ai/ha): 0"
